Experimental data taken from paper PMC5071857, “A unique peptide deformylase platform to rationally design and challenge novel active compounds” (Scientific Reports, 2016).
Like-named read-outs stand apart in the source and are kept apart here.

Legend:
[1] = system: E. coli AG100A (AcrAB- derivative); assay: MIC by microdilution, E. coli AG100A; assay type: cell-based; details: for MIC: Escherichia coli, 18 h, read-out: MIC AG100A; for MIC AG100A: with PMBN at 1/5 of its MIC, 18 h at 37 °C, average of three assays
From the text: (§1) Two E. coli strains, one B. subtilis strain, one S. aureus strain, one E. faecalis strain, one S. agalactiae strain and three Enterobacter aerogenes strains previously described were used. Briefly, AG100 was an E. coli wild type strain and AG100A its acrAB^- derivative. EA289 was a Kan^s derivative of an E. aerogenes multi-drug resistant (MDR) clinical isolate overexpressing AcrAB-TolC efflux pumps, and EA294 and EA298 its acrAB^- and tolC^- derivatives respectively. Strains were routinely grown at 37 °C on Luria-Bertani (LB) agar or in Mueller-Hinton II broth (MH), supplemented with kanamycine (50 μg.mL^−1) for AG100A, EA294 and EA298.
(§2) MIC values of antibiotics were determined by the microdilution method in liquid MH media in microplates in the absence or presence of chemosensitizers/modulators (e.g. PMBN, PAβN), as previously described. Permeabilization, blocking of efflux pumps, and isolates with different levels of porin or efflux expression were used to assess the involvement of the membrane barrier in antibiotic activity.
(§3) Susceptibilities were determined in 96-wells microplates with an inoculum of 2 × 10^5 cfu in 200 μL of MH broth containing two-fold serial dilutions of each antibiotics or compounds. Molecules were tested alone or in combination with other molecules in equimolar ratio. MICs were realized in the absence and in the presence of a membrane permeabilizer, the polymyxine B nonapeptide (PMBN) used at 51.2 mg/L (1/5 or 1/10 of its direct MIC previously determined). Actinonin and ciprofloxacin were used as internal antibiotic reference. […] Each test was systematically performed in triplicate. The average of three independent assays is presented in μg/mL in the respective tables.

AtPDF1B [2] = biological target: T1, AtPDF1B (Arabidopsis thaliana, UniProt Q9FUZ2); assay: PDF inhibition, formate dehydrogenase-coupled spectrophotometric assay (AtPDF1B); assay type: biochemical; details: for IC50 / Ki: 100 nM AtPDF1B; for IC50: 2 mM Fo-Met-Ala-Ser, 10 min pre-incubation at 37 °C; for Ki: PDFI pre-incubated with enzyme 10 min at 37 °C, started by 2 mM Fo-Met-Ala-Ser, read-out: AtPDF1B KI*app; for AtPDF1B KI/KI*app: enhancement potency (slow tight-binding)
T1 construct: made in house
T1 sequence (Q9FUZ2 83-273): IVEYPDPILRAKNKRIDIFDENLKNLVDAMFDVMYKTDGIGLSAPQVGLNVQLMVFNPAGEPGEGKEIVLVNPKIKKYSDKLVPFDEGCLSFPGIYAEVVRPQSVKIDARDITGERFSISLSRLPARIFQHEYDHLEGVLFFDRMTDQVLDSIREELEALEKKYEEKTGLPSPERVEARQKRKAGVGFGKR
Experimental: (§4) Enzymatic activity was measured by a spectrophotometric assay where peptide deformylase activity is coupled to that of formate dehydrogenase. The formate released by the deformylation reaction is used by FDH to convert NAD in NADH, the production of which being measured over time at 340 nm and controlled temperature (37 °C). The 200 μL reaction mixture contained 50 mM HEPES-NaOH pH7.5, 12 mM NAD^+, 4.5 U/mL FDH, 1 mM NiCl2 and PDF enzyme (either 40 nM SaPDF or 10 nM EcPDF or 100 nM AtPDF1B) previously diluted in presence of 0.1 mg/mL BSA. The reaction was started by addition of 1–6 mM Fo-Met-Ala-Ser. Kinetics parameters (kcat, Km) were derived from iterative non-linear least square fits using the Michaelis-menten equation based on the experimental data (Sigma-Plot, Kinetics module).
(§5) 1/KI*app is the slope of the v0/vi curve in function of compound concentration, where v0 and vi are the initial reaction rates in absence and presence of compound, respectively.
(§6) Determination of KI values was performed with a slightly modified protocol: reaction was started by addition of enzyme instead of Fo-Met-Ala-Ser, the latter being directly added to the mixture containing increasing concentrations of each compound. No pre-incubation of enzyme in presence of compound was done. 1/KI is the slope of the v0/vi curve in function of compound concentration, where v0 and vi are the initial reaction rates in absence and presence of compound respectively.

E. coli AG100 = assay: MIC by microdilution, E. coli AG100; assay type: cell-based; details: 18 h at 37 °C, average of three assays; for MIC: Escherichia coli, AG100, without PMBN; for MIC AG100: with PMBN at 1/5 of its MIC
From the text: as §1, §2, §3

EcPDF = biological target: T2, EcPDF (Escherichia coli, UniProt P0A6K3); assay: PDF inhibition, formate dehydrogenase-coupled spectrophotometric assay (EcPDF); assay type: biochemical; details: for EcPDF KI/KI*app: enhancement potency (slow tight-binding)
T2 construct: made in house
Experimental: as §4, with “The” for “Enzymatic activity was measured by a spectrophotometric assay where peptide deformylase activity is coupled to that of formate dehydrogenase. The”
as §5, §6

SaPDF [3] = biological target: T3, SaPDF (Streptococcus agalactiae serotype III, UniProt Q8E378, S2A); assay: biochemical; details: SaPDF KI*app, PDFI pre-incubated with enzyme 10 min at 37 °C, started by 2 mM Fo-Met-Ala-Ser; 40 nM SaPDF
T3 construct: the recombinant protein contains all residues of the 204 amino acids mature protein; made in house; host or cells: E. coli Rosetta 2(DE3)pLysS

AtPDF1B [4] = biological target: T1, AtPDF1B; assay: PDF inhibition, formate dehydrogenase-coupled spectrophotometric assay (AtPDF1B); assay type: biochemical; details: no pre-incubation, assay initiated by addition of enzyme; 100 nM AtPDF1B; 37 °C
[5] = system: E. aerogenes Ea289, MDR strain; assay: MIC by microdilution, E. aerogenes Ea289; assay type: cell-based, Enterobacter aerogenes; details: for MIC Ea289: +PMBN at 1/5 of its MIC, average of three assays; for MIC: Klebsiella aerogenes, 18 h, read-out: MIC Ea289
From the text: as §1, §2, §3

[6] = system: E. aerogenes Ea294, Ea289 derivative AcrAB-; assay: MIC by microdilution, E. aerogenes Ea294; assay type: cell-based, Enterobacter aerogenes; details: for MIC Ea294: +PMBN at 1/5 of its MIC, average of three assays; for MIC: Klebsiella aerogenes, 18 h, read-out: MIC Ea294
From the text: as §1, §2, §3

[7] = system: E. aerogenes Ea298, Ea289 derivative tolC-; assay: MIC by microdilution, E. aerogenes Ea298; assay type: cell-based, Enterobacter aerogenes; details: Klebsiella aerogenes, 18 h, read-out: MIC Ea298
From the text: as §1, §2, §3

SaPDF [8] = biological target: T3, SaPDF; assay: biochemical; details: for Ki: SaPDF KI, no pre-incubation, assay initiated by addition of enzyme, 40 nM SaPDF, 37 °C
Experimental: as §4, §5, §6

B. subtilis 168 = assay: MIC, B. subtilis 168; assay type: cell-based; details: Bacillus subtilis
From the text: as §1, §2, §3

E. faecalis EFA 103.214 = assay: MIC, E. faecalis EFA 103.214; assay type: cell-based; details: Enterococcus faecalis, EFA103.214, read-out: MIC E. faecalis EFA 103.214
From the text: as §1, §2, §3

S. aureus SA113 = assay: MIC, S. aureus SA113; assay type: cell-based; details: Staphylococcus aureus
From the text: as §1, §2, §3

[9] = EcPDF KI*app, PDFI pre-incubated with enzyme 10 min at 37 °C, started by 2 mM Fo-Met-Ala-Ser, 10 nM EcPDF
[10] = EcPDF KI, no pre-incubation, assay initiated by addition of enzyme, 10 nM EcPDF, 37 °C
[11] = 10 nM EcPDF, 2 mM Fo-Met-Ala-Ser, 10 min pre-incubation at 37 °C, read-out: IC50 EcPDF

T3 sequence (Q8E378 whole entry S2A): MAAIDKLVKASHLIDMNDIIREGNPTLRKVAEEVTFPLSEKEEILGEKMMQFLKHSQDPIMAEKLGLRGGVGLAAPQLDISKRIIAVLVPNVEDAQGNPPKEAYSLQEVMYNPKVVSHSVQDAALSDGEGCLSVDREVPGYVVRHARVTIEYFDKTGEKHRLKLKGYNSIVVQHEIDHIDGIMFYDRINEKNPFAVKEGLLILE
T2 sequence (P0A6K3 whole entry): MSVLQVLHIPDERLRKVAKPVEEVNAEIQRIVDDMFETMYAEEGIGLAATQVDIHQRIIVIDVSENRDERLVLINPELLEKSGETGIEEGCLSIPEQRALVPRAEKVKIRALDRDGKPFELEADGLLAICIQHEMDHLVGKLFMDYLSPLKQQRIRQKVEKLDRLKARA

| SMILES | MIC [1] | MIC AG100A [1] | IC50 (AtPDF1B [2]) | Ki (AtPDF1B [2]) | AtPDF1B KI/KI*app (AtPDF1B [2]) | MIC (E. coli AG100) | MIC AG100 (E. coli AG100) | IC50 (EcPDF) | Ki (EcPDF; [9]) | Ki (EcPDF; [10]) | EcPDF KI/KI*app (EcPDF) | Ki (SaPDF [3]) | Ki (AtPDF1B [4]) | MIC Ea289 [5] | MIC [5] | MIC Ea294 [6] | IC50 (EcPDF; [11]) | MIC (B. subtilis 168) | MIC (E. faecalis EFA 103.214) | MIC (S. aureus SA113) | further results |
| --- | --- | --- | --- | --- | --- | --- | --- | --- | --- | --- | --- | --- | --- | --- | --- | --- | --- | --- | --- | --- | --- |
| O=C(C[C@@H](CC1CCCC1)c1nc(Cc2coc3ccccc23)no1)NO [AT019] | 16 µg/mL | 0.5 µg/mL | 0.077 ± 0.005 µM | 0.054 ± 0.002 µM | 5 | > 64 µg/mL | 2 µg/mL | 0.006 ± 0.001 µM | 0.0011 ± 0.0003 µM | 0.076 ± 0.004 µM | 69 | 0.0075 ± 0.002 µM | 0.263 ± 0.026 µM | 16 µg/mL | > 128 µg/mL | 2 µg/mL |  |  |  |  | MIC [6]: 128 µg/mL; MIC [7]: 64 µg/mL; IC50 (SaPDF [8]): 0.007 ± 0.001 µM; Ki (SaPDF [8]): 0.065 ± 0.006 µM |
| CCCC[C@H](CC(=O)NO)c1nc(C(=O)N[C@H](C(=O)OC)C(C)C)co1 [AT009] | > 64 µg/mL | >64 µg/mL |  |  |  | > 64 µg/mL | >64 µg/mL |  |  |  |  |  |  |  |  |  | 0.33 µM | > 64 µg/mL | > 64 µg/mL | > 64 µg/mL |  |
| CCCCC(CC(=O)NO)c1nc(C(N)=O)co1 (stereo not shown) [AT007] | > 64 µg/mL | >64 µg/mL |  |  |  | > 64 µg/mL | >64 µg/mL |  |  |  |  |  |  |  |  |  | 0.74 µM | > 64 µg/mL | > 64 µg/mL | > 64 µg/mL |  |
| O=C(C[C@@H](CC1CCCC1)c1nc(Cc2ccc3c(c2)OCO3)no1)NO [AT020] | 16 µg/mL | 4 µg/mL | 0.119 ± 0.01 µM | 0.123 ± 0.005 µM | 2 | > 64 µg/mL | 8 µg/mL | 0.007 ± 0.002 µM | 0.0019 ± 0.0002 µM | 0.08 ± 0.003 µM | 42 | 0.0085 ± 0.003 µM | 0.238 ± 0.03 µM | 32 µg/mL | > 128 µg/mL | 8 µg/mL |  |  |  |  | MIC [6]: 128 µg/mL; MIC [7]: 128 µg/mL; IC50 (SaPDF [8]): 0.012 ± 0.003 µM; Ki (SaPDF [8]): 0.063 ± 0.003 µM |
| CCCC[C@H](CC(=O)NO)c1nc(C(=O)N[C@H](C(N)=O)C(C)C)co1 [AT010] | > 64 µg/mL | >64 µg/mL |  |  |  | > 64 µg/mL | >64 µg/mL |  |  |  |  |  |  |  |  |  | 0.42 µM | > 64 µg/mL | > 64 µg/mL | > 64 µg/mL |  |
